Holding throughout (type): cell-based
Assay [1] relates to Chrysosporium keratinophilum. Nature of the assay: Agar plate disc-diffusion, antifungal inhibition zone. The conditions noted are these: DMSO control zone subtracted; for inhibition zone, Chrysosporium keratinophilum, A: A = concentration of comp. = 10,000 μL; for inhibition zone, Chrysosporium keratinophilum, B: B = concentration of comp. = 30.000 μL; for inhibition zone, Chrysosporium keratinophilum, C: C = concentration of comp. = 50,000 μL. As to the method:
(§1) The agar plate disc-diffusion method was applied. Sterilized filter papers (6 mm in diameter) were wetted with 10 μL of a solution of 2-ethoxy[4,3:6,4-terpyridine]-3-carbonitrile (4) and 2-methoxy[4,3:6,4-terpyridine]-3-carbonitrile (5) to be tested, containing […], and the discs were allowed to air dry. The discs were then placed onto the surface of agar plates (nutrient agar for bacteria and Sabouraud's dextrose agar for fungi) seeded with the test organism. Each plate contained 15 mL of the agar medium, previously seeded with 0.2 mL of the broth culture of each organism pregrown for 18 hours. The plates were incubated at 37° C. for 48 h, and 72 h for fungi. The inhibition zones were measured in mm. Discs impregnated with DMSO were used as a control, and its inhibition zone was subtracted from the tested compound actual inhibition zone.
(In general: Agar diffusion results depend on both activity and mobility in agar.)

The test system of another assay is Aspergillus flavus. Described as above. The following applies: DMSO control zone subtracted; for inhibition zone, Aspergillus flavus, A: A = concentration of comp. = 10,000 μL; for inhibition zone, Aspergillus flavus, B: B = concentration of comp. = 30.000 μL; for inhibition zone, Aspergillus flavus, C: C = concentration of comp. = 50,000 μL. As to the method:
as §1

In another assay the test system is Pseudomonas aeruginosa. Nature of the assay: Agar plate disc-diffusion, antibacterial inhibition zone. The conditions noted are these: DMSO control zone subtracted; for inhibition zone, Pseudomonas aeruginosa, A: A = concentration of comp. = 10,000 μL; for inhibition zone, Pseudomonas aeruginosa, B: B = concentration of comp. = 30.000 μL; for inhibition zone, Pseudomonas aeruginosa, C: C = concentration of comp. = 50,000 μL. As to the method: as §1

Another assay relates to Bacillus Cereus. Described as above. The following applies: DMSO control zone subtracted; for inhibition zone, Bacillus Cereus, A: A = concentration of comp. = 10,000 μL; for inhibition zone, Bacillus Cereus, B: B = concentration of comp. = 30.000 μL; for inhibition zone, Bacillus Cereus, C: C = concentration of comp. = 50,000 μL. As to the method:
as §1

The subject of another assay is Staphylococcus aureus. The assay is described as above. The conditions noted are these: DMSO control zone subtracted; for inhibition zone, Staphylococcus aureus, A: A = concentration of comp. = 10,000 μL; for inhibition zone, Staphylococcus aureus, B: B = concentration of comp. = 30.000 μL; for inhibition zone, Staphylococcus aureus, C: C = concentration of comp. = 50,000 μL. As to the method: as §1

The test system of the next assay is Escherichia coli. The assay is described as above. The following applies: DMSO control zone subtracted; for inhibition zone, Escherichia coli, A: A = concentration of comp. = 10,000 μL; for inhibition zone, Escherichia coli, B: B = concentration of comp. = 30.000 μL; for inhibition zone, Escherichia coli, C: C = concentration of comp. = 50,000 μL. As to the method: as §1

Molecules are shown by their SMILES.

As for `CCOc1nc(-c2ccncc2)cc(-c2cccnc2)c1C#N` [Compound 4, 2-ethoxy[4,3:6,4-terpyridine]-3-carbonitrile], in assay [1], the “inhibition zone, Chrysosporium keratinophilum, A” value was determined as 26 mm; the “inhibition zone, Chrysosporium keratinophilum, B” value is listed as 31 mm; the “inhibition zone, Chrysosporium keratinophilum, C” value is on record as 39 mm. In the assay on Aspergillus flavus, the “inhibition zone, Aspergillus flavus, A” value amounted to 30 mm; the “inhibition zone, Aspergillus flavus, B” value was 34 mm; the “inhibition zone, Aspergillus flavus, C” value came out at 41 mm. In addition, in the assay with Pseudomonas aeruginosa, the “inhibition zone, Pseudomonas aeruginosa, A” value came out at 28 mm; the “inhibition zone, Pseudomonas aeruginosa, B” value is reported as 34 mm; the “inhibition zone, Pseudomonas aeruginosa, C” value worked out at 41 mm. For the same compound, in the assay on Bacillus Cereus, the “inhibition zone, Bacillus Cereus, A” value is listed as 27 mm; the “inhibition zone, Bacillus Cereus, B” value was 34 mm; the “inhibition zone, Bacillus Cereus, C” value came out at 39 mm. For the same compound, in the assay on Staphylococcus aureus, the “inhibition zone, Staphylococcus aureus, A” value is given as 19 mm; the “inhibition zone, Staphylococcus aureus, B” value was 23 mm; the “inhibition zone, Staphylococcus aureus, C” value is listed as 33 mm. In the assay with Escherichia coli, the “inhibition zone, Escherichia coli, A” value came to 33 mm; the “inhibition zone, Escherichia coli, B” value stood at 41 mm; the “inhibition zone, Escherichia coli, C” value was 49 mm.

Turning to `COc1nc(-c2ccncc2)cc(-c2cccnc2)c1C#N` [Compound 5, 2-methoxy[4,3:6,4-terpyridine]-3-carbonitrile], in assay [1], the “inhibition zone, Chrysosporium keratinophilum, A” value was 27 mm; the “inhibition zone, Chrysosporium keratinophilum, B” value is on record as 30 mm; the “inhibition zone, Chrysosporium keratinophilum, C” value is reported as 46 mm. Further, in the assay with Aspergillus flavus, the “inhibition zone, Aspergillus flavus, A” value came out at 19 mm; the “inhibition zone, Aspergillus flavus, B” value was 24 mm; the “inhibition zone, Aspergillus flavus, C” value is given as 30 mm. Also, in the assay with Pseudomonas aeruginosa, the “inhibition zone, Pseudomonas aeruginosa, A” value was found to be 26 mm; the “inhibition zone, Pseudomonas aeruginosa, B” value was found to be 32 mm; the “inhibition zone, Pseudomonas aeruginosa, C” value was determined as 40 mm. Also, in the assay with Bacillus Cereus, the “inhibition zone, Bacillus Cereus, A” value stood at 32 mm; the “inhibition zone, Bacillus Cereus, B” value is 36 mm; the “inhibition zone, Bacillus Cereus, C” value is listed as 41 mm. Also, in the assay with Staphylococcus aureus, the “inhibition zone, Staphylococcus aureus, A” value amounted to 23 mm; the “inhibition zone, Staphylococcus aureus, B” value is 28 mm; the “inhibition zone, Staphylococcus aureus, C” value is given as 37 mm. Also, in the assay on Escherichia coli, the “inhibition zone, Escherichia coli, A” value was found to be 32 mm; the “inhibition zone, Escherichia coli, B” value is recorded as 39 mm; the “inhibition zone, Escherichia coli, C” value is recorded as 42 mm.

Source of the values: patent US11926615B1, “2-alkoxy[4,3:6,4-terpyridine]-3-carbonitriles as antimicrobial compounds” (KING FAISAL UNIVERSITY, priority 2023, dated 2024).
